Test results taken from the supplement of paper PMC8882468.
Several values for one entry are separate records, joined by “and”; a condition that tells them apart may be missing. Equal values may be shown once. ± gives the standard deviation of the averaged measurements.

Experiments:
Assay in all cases: CTG-3D luminescence at 96 h relative to day-0 seeding control (ratio to day 0); higher = more growth / less cytotoxicity
HCI-001 = system: HCI-001 (organoid from a triple-negative breast cancer xenograft)
Method: (§1)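 PDxO 3D drug screen (set 2), 8-point dose, 96 h; CTG-3D luminescence normalised to day-0 seeding control (mean of 4 wells each).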

HCI-005.E2 = system: HCI-005.E2 (organoid from a breast cancer xenograft with a HER2-positive history)
Method: as §1

HCI-012 = system: HCI-012 (organoid from a breast cancer xenograft)
Method: as §1

HCI-016 = system: HCI-016 (organoid from a triple-negative breast cancer xenograft)
Method: as §1

HCI-019 = system: HCI-019 (organoid from a triple-negative breast cancer xenograft)
Method: as §1

HCI-024 = system: HCI-024 (organoid from a breast cancer xenograft)
Method: as §1

MDA-MB-231 = system: MDA-MB-231
Method: as §1

CC/C(=C(\c1ccc(O)cc1)c1ccc(OCCN(C)C)cc1)c1ccccc1 [4-hydroxytamoxifen]
CTG-3D luminescence at 96 h
Details | 12.5 pM | 0.00025 µM | 0.005 µM | 0.1 µM | 1 µM | 10 µM | 100 µM | 625 fM
HCI-001, days in culture: 365 | 2.24 | 2.14 | 2.59 | 3.06 | 2.55 | 1.86 | 0.0145 | 1.46
HCI-001, days in culture: 397 | 1.66 | 1.84 | 2.19 | 2.62 | 1.93 | 1.21 | 0.00832 | 1.25
HCI-001, days in culture: 401 | 1.75 | 1.39 | 1.52 | 1.38 | 1.26 | 1.52 | 0.00247 | 1.47
HCI-012, days in culture: 214 | 3.56 | 3.14 | 1.65 | 2.13 | 2.18 | 0.301 | 0.00686 | 1.93
HCI-012, days in culture: 243 | 2.35 | 2.75 | 1.8 | 2.23 | 1.49 | 1.87 | 0.00753 | 2.29
HCI-012, days in culture: 256 | 1.59 | 1.79 | 2.4 | 3.03 | 2.03 | 1.01 | -0.000283 | 2.33
HCI-012, days in culture: 284 | 2.11 | 2.32 | 1.6 | 2.02 | 1.71 | 1.47 | 0.00771 | 3.35
HCI-016, days in culture: 305 | 2.77 | 4.59 | 2.65 | 4.18 | 2.47 | 1.67 | 0.0261 | 4.99
HCI-016, days in culture: 327 | 0.944 | 0.968 | 2.39 | 2.26 | 1.5 | 1.58 | 0.0115 | 1.27
HCI-016, days in culture: 341 | 2.5 | 1.22 | 2.22 | 1.54 | 1.41 | 1.48 | 0.00227 | 2.1
HCI-016, days in culture: 397 | 1.82 | 2.24 | 1.56 | 1.83 | 1.91 | 2.17 | 0.0134 | 2
HCI-019, days in culture: 173 | 1.97 | 1.2 | 1.04 | 1.81 | 1.85 | 0.914 | 0.0117 | 1.34
HCI-019, days in culture: 194 | 1.24 | 0.815 | 2.23 | 0.96 | 2.13 | 0.944 | 0.00421 | 2.45
HCI-019, days in culture: 215 | 2.34 | 1.56 | 1.23 | 1.28 | 1.14 | 0.473 | 0.00476 | 1.5
HCI-024, days in culture: 202 | 1.48 | 1.18 | 1.56 | 1.67 | 0.953 | 1.09 | 0.00631 | 1.74
HCI-024, days in culture: 231 | 1.05 | 1.07 | 1.18 | 0.978 | 0.782 | 0.83 | 0.00137 | 1.07
HCI-024, days in culture: 254 | 1.94 | 1.16 | 1.05 | 1.38 | 1.28 | 0.958 | 0.00459 | 0.909

CTG-3D luminescence at 96 h
Details | 12.5 pM | 0.00025 µM | 0.005 µM | 0.1 µM | 1 µM | 10 µM | 100 µM | 625 fM
HCI-005.E2 | 1.68 ± 0.34 | 1.99 ± 0.4 | 2.22 ± 0.4 | 2.35 ± 0.56 | 2.26 ± 0.97 | 2.01 ± 0.43 | 0.0139 ± 0.0031 | 2.45 ± 0.34
MDA-MB-231 | 5.74 and 4.89 | 5.63 and 4.98 | 5.56 and 5.21 | 5.42 and 5.04 | 5.45 and 5.21 | 4.78 and 4.53 | 0.0254 and 0.0304 | 5.5 and 5.05
